The source of these data is US20040236084A1, “2-Aminopyridine substituted heterocycles” (Pfizer Inc, priority 2003, published 2004).

Structures can show the parent of a compound that is named as a salt.

Usually melting point stands for the temperature of the solid-liquid transition. One may read the IC50 as the concentration at which inhibition is half-maximal.

In one data set the target is Cdk2/cyclin A (Homo sapiens, UniProt P24941). Put plainly: Assay for inhibition of Cdk2/Cyclin A (32P incorporation into retinoblastoma protein, filter plate). The class given is biochemical. The procedure:
(§1) To determine the inhibitory potency and selectivity of compounds of the present invention against Cdk4 and related kinases, compounds were evaluated in standard assays routinely used to measure inhibition of cyclin-dependent kinase enzymes and other protein kinases (see for example D. W. Fry et al., J. Biol. Chem. 2001, 276, 16617-16623). The assays were carried out as described below.
Assay for Inhibition of Cdk2/Cyclin A
Cdk2 enzyme assays for IC50 determinations and kinetic evaluation are performed as follows. 96-well filter plates (Millipore MADVN6550) are used. The final assay volume is 0.1 mL containing buffer A (20 mM TRIS (tris[hydroxymethyl]aminomethane) (pH 7.4), 50 mM NaCl, 1 mM dithiothreitol, 10 mM MgCl2), […] containing 0.25 μCi [^32P]ATP, 20 ng Cdk2/cyclin A, 1 μg retinoblastoma protein, and the test compound at appropriate dilutions in buffer A (Buffer A alone without added test compound was employed as a control for no inhibition. Buffer A containing excess EDTA was used to determine the level of background ^32P in the absence of enzyme activity). All components except the ATP are added to the wells, and the plate is placed on a plate mixer for 2 minutes. The reaction is initiated by addition of [^32P]ATP, and the plate is incubated at 25° C. for 15 minutes. The reaction is terminated by addition of 0.1 mL 20% TCA. The plate is kept at 4° C. for at least 1 hour to allow the substrate to precipitate. The wells are then washed five times with 0.2 mL 10% TCA, and ^32P incorporation is determined with a beta plate counter (Wallac Inc., Gaithersburg, Md.). The IC50 of the test compound was determined using the median effect method (Chou, T-C and Talalay, P. Applications of the median effect principle for the assessment of low-dose risk of carcinogens and for the quantitation of synergism and antagonism of chemotherapeutic agents. In: New Avenues in Developmental Cancer Chemotherapy (Eds. Harrap, K. T. and Connors, T. A.), pp. 37-64. Academic Press, New York, 1987).

The target of another data set is Cdk4/Cyclin D (Homo sapiens, UniProt P11802). Nature of the data set: Assay for inhibition of Cdk4/Cyclin D (32P incorporation into retinoblastoma protein, filter plate). The class given is biochemical. How it is done: as §1
Chain of Cdk4/Cyclin D (P11802 whole entry, species assumed): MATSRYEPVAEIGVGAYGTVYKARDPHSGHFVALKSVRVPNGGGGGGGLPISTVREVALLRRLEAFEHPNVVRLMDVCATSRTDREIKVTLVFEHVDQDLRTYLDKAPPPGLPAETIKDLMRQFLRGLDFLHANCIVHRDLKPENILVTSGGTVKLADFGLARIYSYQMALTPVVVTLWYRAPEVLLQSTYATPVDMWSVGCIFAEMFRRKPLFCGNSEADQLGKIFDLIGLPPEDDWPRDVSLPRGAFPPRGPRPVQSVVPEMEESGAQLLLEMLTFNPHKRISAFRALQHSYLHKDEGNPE
Chain of Cdk4/Cyclin D (P24385 whole entry partner, species assumed): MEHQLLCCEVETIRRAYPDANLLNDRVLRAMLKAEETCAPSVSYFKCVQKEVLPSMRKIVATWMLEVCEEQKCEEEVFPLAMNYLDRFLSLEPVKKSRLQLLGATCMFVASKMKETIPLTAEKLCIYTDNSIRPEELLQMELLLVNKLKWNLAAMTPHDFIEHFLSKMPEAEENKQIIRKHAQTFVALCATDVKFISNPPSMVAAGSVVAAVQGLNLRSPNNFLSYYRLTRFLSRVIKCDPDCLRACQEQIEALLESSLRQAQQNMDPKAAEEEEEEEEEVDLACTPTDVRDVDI
Assay for Inhibition of Cdk4/Cyclin D
The Cdk4 enzyme assay for IC50 determination and kinetic evaluation is performed as follows. 96-well filter plates (Millipore MADVN6550) are used. The total volume is 0.1 mL containing buffer A (20 mM TRIS (tris[hydroxymethyl]aminomethane) (pH 7.4), 50 mM NaCl, 1 mM dithiothreitol, 10 mM MgCl2), 25 [[…] ATP containing 0.25 μCi [^32P]ATP, 20 ng Cdk4, 1 μg retinoblastoma protein and the test compound at appropriate dilutions in buffer A. Buffer A alone without added test compound was employed as a control for no inhibition. Buffer A containing excess EDTA was used to determine the level of background ^32P in the absence of enzyme activity. All components except the ATP are added to the wells, and the plate is placed on a plate mixer for 2 minutes. The reaction is started by adding [^32P]ATP, and the plate is incubated at 25° C. for 15 minutes. The reaction is terminated by addition of 0.1 mL 20% trichloroacetic acid (TCA). The plate is kept at 4° C. for at least 1 hour to allow the substrate to precipitate. The wells are then washed five times with 0.2 mL 10% TCA, and ^32P incorporation is determined with a beta plate counter (Wallac Inc., Gaithersburg, Md.). The IC50 of the test compound was determined using the median effect method (Chou, T-C and Talalay, P. Applications of the median effect principle for the assessment of low-dose risk of carcinogens and for the quantitation of synergism and antagonism of chemotherapeutic agents. In: New Avenues in Developmental Cancer Chemotherapy (Eds. Harrap, K. T. and Connors, T. A.), pp. 37-64. Academic Press, New York, 1987).

Another data set concerns neointima formation. The following applies: in rats; cited from earlier work.

As to `CCc1nc2cnc(Nc3ccc(N4CCNCC4)cn3)nc2n(C2CCCC2)c1=O` [Example 10, 8-Cyclopentyl-6-ethyl-2-(5-piperazin-1-yl-pyridin-2-ylamino)8H-pteridin-7-one], the melting point is 203 to 208 °C (dec.). At Cdk2/cyclin A, the concentration for half-maximal inhibition (IC50) is over 5000 nM. In addition, the IC50 at Cdk4/Cyclin D was found to be 335 nM. For the compound `COc1ccc(CNc2nc(N(CCO)CCO)nc3c2ncn3C(C)C)cc1` [CVT-313], the “inhibition of neointima formation” value in the data set on neointima formation is “greater than 80%”.

Consider `Cc1nc2cnc(Nc3ccc(N4CCNCC4)cc3)nc2n(C2CCCC2)c1=O` [8′, reference compound], for which the concentration for half-maximal inhibition (IC50) amounted to 913 nM on Cdk2/cyclin A and 14 nM on Cdk4/Cyclin D. As to `Cc1nc2cnc(Nc3ccc(N4CCNCC4)cn3)nc2n(C2CCCC2)c1=O` [Example 8, 8-Cyclopentyl-6-methyl-2-(5-piperazin-1-yl-pyridin-2-ylamino)-8H-pteridin-7-one], the melting point lay within 221 to 223 °C. On Cdk2/cyclin A, the IC50 was over 5000 nM. Also, the concentration for half-maximal inhibition (IC50) at Cdk4/Cyclin D is 510 nM. In the case of `CCc1nc2cnc(Nc3ccc(N4CCNCC4)cc3)nc2n(C2CCCC2)c1=O` [10′, reference compound], the IC50 at Cdk2/cyclin A came to 4120 nM; on Cdk4/Cyclin D it was 28 nM. Compound `CNc1nc(Nc2ccc(N3CCOCC3)cc2)nc(NC2CCCC2)n1` [Example 14D, N-Cyclopentyl-N′-methyl-N″-(4-morpholin-4-yl-phenyl)-[1,3,5]triazine-2,4,6-triamine] had a melting point of 218 to 219 °C.

On to `O=C1N(Cc2ccccc2)Cc2cnc(Nc3ccc(N4CCCCC4)cn3)nc2N1C1CCCC1` [Example 15, 3-Benzyl-1-cyclopentyl-7-(3,4,5,6-tetrahydro-2H-[1,3′]bipyridinyl-6′-ylamino)-3,4-dihydro-1H-pyrimido[4,5-d]pyrimidin-2-one], for which the melting point lay in the range of 194 to 196 °C. `COc1ccc2cnc(Nc3ccc(N4CCNCC4)cn3)nc2c1C1CCCC1` [Example 13, (8-Cyclopentyl-7-methoxy-quinazolin-2-yl)-(5-piperazin-1-yl-pyridin-2-yl)-amine]: the melting point was over 200 °C. On Cdk2/cyclin A, the concentration for half-maximal inhibition (IC50) was 1700 nM. For the same compound, the concentration for half-maximal inhibition (IC50) on Cdk4/Cyclin D was 4 nM. Consider `CCOC(=O)c1cnc(Nc2ccc(N3CCNCC3)cn2)nc1NC1CCCC1` (as salt: hydrochloride), for which the melting point amounted to 180 °C. As to `Clc1nc(Nc2ccc(N3CCOCC3)nc2)nc(NC2CCCC2)n1` [Example 14E, 6-Chloro-N-cyclopentyl-N′-(6-morpholin-4-yl-pyridin-3-yl)-[1,3,5]triazine-2,4-diamine], the melting point is 218 to 219 °C.
